Test [1] addresses Sodium-dependent serotonin transporter (Homo sapiens, UniProt P31645). The test is described as follows: Binding affinity at 5-HT reuptake site labeled with [3H]paroxetine.
In test [2] the target is T1, 5-hydroxytryptamine receptor 1A (Homo sapiens) (UniProt P08908).
T1 sequence (whole entry): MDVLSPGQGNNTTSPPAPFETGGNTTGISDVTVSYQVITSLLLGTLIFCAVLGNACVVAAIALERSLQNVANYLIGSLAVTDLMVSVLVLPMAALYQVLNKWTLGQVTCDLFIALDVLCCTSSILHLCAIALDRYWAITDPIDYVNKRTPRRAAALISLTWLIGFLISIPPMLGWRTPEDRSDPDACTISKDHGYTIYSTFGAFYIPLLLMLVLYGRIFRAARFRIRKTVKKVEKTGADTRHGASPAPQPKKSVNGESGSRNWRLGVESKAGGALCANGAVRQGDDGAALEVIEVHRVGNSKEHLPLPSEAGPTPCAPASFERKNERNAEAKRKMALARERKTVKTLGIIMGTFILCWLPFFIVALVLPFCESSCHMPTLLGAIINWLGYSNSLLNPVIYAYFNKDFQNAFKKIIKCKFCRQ
Description: Evaluated for stimulation at 1 uM concentration expressed as percent of the maximal [35S]GTP-gamma-S, binding induced by 5-hydroxytryptamine. The test is classed as functional. (In general: Binding of GTPγS marks nucleotide exchange on a G protein.)

For test [3], the target named is T2, 5-hydroxytryptamine receptor 1A (Homo sapiens, UniProt P08908).
T2 sequence (P08908 whole entry): T1 sequence (whole entry)
The test is described as follows: Binding affinity was evaluated at 5-hydroxytryptamine 1A receptor labeled with [3H]-8-OH-DPAT.

Sequence of Sodium-dependent serotonin transporter (P31645 whole entry): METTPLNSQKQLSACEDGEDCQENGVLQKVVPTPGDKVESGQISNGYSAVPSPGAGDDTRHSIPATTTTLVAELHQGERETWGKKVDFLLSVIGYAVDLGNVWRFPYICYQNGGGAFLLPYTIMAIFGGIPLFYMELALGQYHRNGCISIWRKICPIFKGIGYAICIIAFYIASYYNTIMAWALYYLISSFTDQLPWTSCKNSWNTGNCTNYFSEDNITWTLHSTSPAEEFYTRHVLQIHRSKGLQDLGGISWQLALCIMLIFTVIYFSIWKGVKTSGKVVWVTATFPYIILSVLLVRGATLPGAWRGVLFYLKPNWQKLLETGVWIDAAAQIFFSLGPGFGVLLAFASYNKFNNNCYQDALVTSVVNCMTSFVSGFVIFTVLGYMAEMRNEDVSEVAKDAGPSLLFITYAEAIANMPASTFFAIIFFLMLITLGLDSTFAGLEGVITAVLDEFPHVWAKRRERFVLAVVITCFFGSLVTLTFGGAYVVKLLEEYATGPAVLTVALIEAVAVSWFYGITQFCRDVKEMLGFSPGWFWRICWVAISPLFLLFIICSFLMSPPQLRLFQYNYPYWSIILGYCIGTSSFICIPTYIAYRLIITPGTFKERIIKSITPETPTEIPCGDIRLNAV

On to `COc1cccc2sc([C@@H]3CCN(C[C@H](O)COc4cccc5[nH]c(C)cc45)[C@@H](C)C3)cc12`, for which, in test [1], the Ki – broadly, the dissociation constant of the complex between target and ligand, obtained from inhibition or displacement – came to 0.86 nM. For the same compound, the Emax – broadly, the greatest response seen or fitted, relative to the assay's reference – in test [2] amounted to 3%.

With `Cc1cc2c(OC[C@@H](O)CN3CC[C@@H](c4ccc5ccccc5c4)C[C@@H]3C)cccc2[nH]1`, the Ki in test [1] came to 0.4 nM; in test [3], 5.11 nM. Also, in test [2], the Emax turned out to be 9%.

Consider `Cc1cc2c(OC[C@H](O)CN3CC[C@@H](c4ccc5occc5c4)C[C@@H]3C)cccc2[nH]1`, for which the Ki in test [1] amounted to 1.69 nM; in test [3] it was 1.39 nM. Also, the Emax in test [2] was 9%.

For `Cc1cc2c(OC[C@@H](O)CN3CC[C@@H](c4cc5ccccc5s4)C[C@@H]3C)cccc2[nH]1`, in test [1], the Ki is 0.53 nM.

Regarding `Cc1cc2c(OC[C@@H](O)CN3CC[C@@H](c4ccc5scc(C)c5c4)C[C@@H]3C)cccc2[nH]1`, the Ki in test [1] came out at 0.54 nM; in test [3], 3.12 nM. Further, the Emax in test [2] came out at 8%.

In the case of `O[C@@H](COc1cccc2[nH]ccc12)CN1CCC(c2csc3ccccc23)CC1`, the Ki in test [3] amounted to 1.84 nM. That is a single-digit nanomolar value.

As to `Cc1cc2c(OC[C@@H](O)CN3CC[C@@H](c4ccc5c(C)csc5c4)C[C@@H]3C)cccc2[nH]1`, the Ki in test [1] came to 0.58 nM; in test [3], 7.82 nM. This compound showed an Emax in test [2] of 4%.

Take `COc1cccc2ccc([C@@H]3CCN(C[C@H](O)COc4cccc5[nH]c(C)cc45)[C@@H](C)C3)cc12`: the values for the Ki in test [1] and in test [3] were 0.34 nM and 10.9 nM, respectively. Also, in test [2], the Emax came out at 11%.

In the case of `Cc1cc2c(OC[C@H](O)CN3CC[C@@H](c4cccc5sccc45)C[C@@H]3C)cccc2[nH]1`, the Ki in test [1] is 4.35 nM; in test [3] it was 1.82 nM. The Emax in test [2] was found to be 15%.

As for `Cc1cc2c(OC[C@@H](O)CN3CC[C@@H](c4ccc5ccsc5c4)C[C@@H]3C)cccc2[nH]1`, the Ki in test [1] amounted to 0.75 nM; in test [3], 4.45 nM. Besides, in test [2], the maximum response (Emax) amounted to 12%.

In the case of `Cc1cc2c(OC[C@@H](O)CN3CC[C@@H](c4ccc5ccoc5c4)C[C@@H]3C)cccc2[nH]1`, the Ki stood at 3.77 nM in test [1] and 1.05 nM in test [3]. For the same compound, in test [2], the Emax came to 6%.

Consider `Cc1cc2c(OC[C@@H](O)CN3CC[C@@H](c4cccc5ccsc45)C[C@@H]3C)cccc2[nH]1`, for which the Ki in test [1] came out at 9.24 nM; in test [3] it was 0.91 nM. This compound displayed an Emax in test [2] of 8%.

For the compound `Cc1cc2c(OC[C@@H](O)CN3CC[C@@H](c4cccc5occc45)C[C@@H]3C)cccc2[nH]1`, the Ki turned out to be 7.18 nM in test [1] and 1.23 nM in test [3]. Further, the Emax in test [2] was determined as 8%.

For the compound `O[C@@H](COc1cccc2[nH]ccc12)CN1CCC(c2cc3ccccc3s2)CC1`, the Ki in test [1] turned out to be 16.7 nM; in test [3] it was 3.7 nM. Besides, in test [2], the Emax is 12%.

Regarding `Cc1cc2c(OC[C@H](O)CN3CC[C@@H](c4ccc5sccc5c4)C[C@@H]3C)cccc2[nH]1`, the Ki was determined as 0.3 nM in test [1] and 1.43 nM in test [3]. In test [2], this compound registered an Emax of 12%.
